Measurements from PubChem BioAssay (NCI).
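Interpolation was linear, between the two tested concentrations surrounding the appropriate level; five concentrations were tested over 48 hours in 96-well plates. GI50: concentration for 50% inhibition of growth. At the TGI there is no net growth.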

What was measured:
Test in all cases: DTP human tumour cell line panel, 48 h
786-0 renal = system: 786-0 renal
A498 renal = system: A498 renal
A549 NSCLC = system: A549 NSCLC
ACHN renal = system: ACHN renal
BT-549 breast = system: BT-549 breast
CAKI-1 renal = system: CAKI-1 renal
CCRF-CEM leukemia = system: CCRF-CEM leukemia
COLO 205 colon = system: COLO 205 colon
DU-145 prostate = system: DU-145 prostate
HCC-2998 colon = system: HCC-2998 colon
HCT-116 colon = system: HCT-116 colon
HCT-15 colon = system: HCT-15 colon
HL-60(TB) leukemia = system: HL-60(TB) leukemia
HOP-62 NSCLC = system: HOP-62 NSCLC
HOP-92 NSCLC = system: HOP-92 NSCLC
HS 578T breast = system: HS 578T breast
HT29 colon = system: HT29 colon
IGROV1 ovarian = system: IGROV1 ovarian
K-562 leukemia = system: K-562 leukemia
KM12 colon = system: KM12 colon
LOX IMVI melanoma = system: LOX IMVI melanoma
M14 melanoma = system: M14 melanoma
MALME-3M melanoma = system: MALME-3M melanoma
MCF7 breast = system: MCF7 breast
MDA-MB-231 breast = system: MDA-MB-231 breast
MDA-MB-435 = system: MDA-MB-435
MOLT-4 leukemia = system: MOLT-4 leukemia
NCI-H226 lung = system: NCI-H226 lung
NCI-H23 lung = system: NCI-H23 lung
NCI-H460 lung = system: NCI-H460 lung
NCI-H522 lung = system: NCI-H522 lung
NCI/ADR-RES ovarian = system: NCI/ADR-RES ovarian
OVCAR-3 ovarian = system: OVCAR-3 ovarian
OVCAR-4 ovarian = system: OVCAR-4 ovarian
OVCAR-5 ovarian = system: OVCAR-5 ovarian
OVCAR-8 ovarian = system: OVCAR-8 ovarian
PC-3 prostate = system: PC-3 prostate
RPMI-8226 leukemia = system: RPMI-8226 leukemia
RXF 393 renal = system: RXF 393 renal
SF-268 CNS = system: SF-268 CNS
SF-295 CNS = system: SF-295 CNS
SF-539 CNS = system: SF-539 CNS
SK-MEL-2 melanoma = system: SK-MEL-2 melanoma
SK-MEL-28 melanoma = system: SK-MEL-28 melanoma
SK-MEL-5 melanoma = system: SK-MEL-5 melanoma
SK-OV-3 ovarian = system: SK-OV-3 ovarian
SN12C renal = system: SN12C renal
SNB-19 CNS = system: SNB-19 CNS
SNB-75 CNS = system: SNB-75 CNS
SR leukemia = system: SR leukemia
SW-620 colon = system: SW-620 colon
T-47D breast = system: T-47D breast
TK-10 renal = system: TK-10 renal
U251 CNS = system: U251 CNS
UACC-257 melanoma = system: UACC-257 melanoma
UACC-62 melanoma = system: UACC-62 melanoma
UO-31 renal = system: UO-31 renal

COc1ccc(C2=CC(c3ccc(OC)cc3Br)N3C=CSC3=N2)cc1 (centres undefined)
GI50 (786-0 renal): 13.1 µM
TGI (786-0 renal): 28.7 µM
GI50 (A498 renal): 13.3 µM
TGI (A498 renal): 32.5 µM
GI50 (A549 NSCLC): 10.5 µM
TGI (A549 NSCLC): 39 µM
GI50 (ACHN renal): 2.39 µM
TGI (ACHN renal): 5.88 µM
GI50 (BT-549 breast): 3.19 µM
TGI (BT-549 breast): 12.1 µM
GI50 (CAKI-1 renal): 13.4 µM
TGI (CAKI-1 renal): 51.4 µM
GI50 (CCRF-CEM leukemia): 2.69 µM
TGI (CCRF-CEM leukemia): > 100 µM
GI50 (COLO 205 colon): 11.3 µM
TGI (COLO 205 colon): 25.1 µM
GI50 (DU-145 prostate): 11.9 µM
TGI (DU-145 prostate): 33.1 µM
GI50 (HCC-2998 colon): 5.38 µM
TGI (HCC-2998 colon): 17.8 µM
GI50 (HCT-116 colon): 1.66 µM
TGI (HCT-116 colon): 3.17 µM
GI50 (HCT-15 colon): 1.49 µM
TGI (HCT-15 colon): 3.41 µM
GI50 (HL-60(TB) leukemia): 3.2 µM
TGI (HL-60(TB) leukemia): 19.3 µM
GI50 (HOP-62 NSCLC): 10.5 µM
TGI (HOP-62 NSCLC): 24.8 µM
GI50 (HOP-92 NSCLC): 5.78 µM
TGI (HOP-92 NSCLC): 41.8 µM
GI50 (HS 578T breast): 14.4 µM
TGI (HS 578T breast): 66.5 µM
GI50 (HT29 colon): 2.09 µM
TGI (HT29 colon): 4.87 µM
GI50 (IGROV1 ovarian): 7.31 µM
TGI (IGROV1 ovarian): 30.7 µM
GI50 (K-562 leukemia): 2.47 µM
TGI (K-562 leukemia): 8.26 µM
GI50 (KM12 colon): 2.28 µM
TGI (KM12 colon): 5.06 µM
GI50 (LOX IMVI melanoma): 2 µM
TGI (LOX IMVI melanoma): 4.03 µM
GI50 (M14 melanoma): 5.21 µM
TGI (M14 melanoma): 20.8 µM
GI50 (MALME-3M melanoma): 14 µM
TGI (MALME-3M melanoma): 32.3 µM
GI50 (MCF7 breast): 1.51 µM
TGI (MCF7 breast): 11.2 µM
GI50 (MDA-MB-231 breast): 8.32 µM
TGI (MDA-MB-231 breast): 36.2 µM
GI50 (MDA-MB-435): 2.58 µM
TGI (MDA-MB-435): 7.95 µM
GI50 (MOLT-4 leukemia): 2.93 µM
TGI (MOLT-4 leukemia): 9.64 µM
GI50 (NCI-H226 lung): 14.7 µM
TGI (NCI-H226 lung): 37.8 µM
GI50 (NCI-H23 lung): 15.2 µM
TGI (NCI-H23 lung): 42.8 µM
GI50 (NCI-H460 lung): 11.9 µM
TGI (NCI-H460 lung): 34.6 µM
GI50 (NCI-H522 lung): 5.22 µM
TGI (NCI-H522 lung): 20.7 µM
GI50 (NCI/ADR-RES ovarian): 4.43 µM
TGI (NCI/ADR-RES ovarian): 29 µM
GI50 (OVCAR-3 ovarian): 4.11 µM
TGI (OVCAR-3 ovarian): 14.8 µM
GI50 (OVCAR-4 ovarian): 5.04 µM
TGI (OVCAR-4 ovarian): 27.3 µM
GI50 (OVCAR-5 ovarian): 12.4 µM
TGI (OVCAR-5 ovarian): 32.3 µM
GI50 (OVCAR-8 ovarian): 4.09 µM
TGI (OVCAR-8 ovarian): 27.8 µM
GI50 (PC-3 prostate): 6.4 µM
TGI (PC-3 prostate): 31.9 µM
GI50 (RPMI-8226 leukemia): 1.86 µM
TGI (RPMI-8226 leukemia): 7.29 µM
GI50 (RXF 393 renal): 7.67 µM
TGI (RXF 393 renal): 22 µM
GI50 (SF-268 CNS): 13.7 µM
TGI (SF-268 CNS): 48.5 µM
GI50 (SF-295 CNS): 11.5 µM
TGI (SF-295 CNS): 38.7 µM
GI50 (SF-539 CNS): 4.61 µM
TGI (SF-539 CNS): 17.1 µM
GI50 (SK-MEL-2 melanoma): 15.2 µM
TGI (SK-MEL-2 melanoma): 31.3 µM
GI50 (SK-MEL-28 melanoma): 8.83 µM
TGI (SK-MEL-28 melanoma): 22.3 µM
GI50 (SK-MEL-5 melanoma): 4.32 µM
TGI (SK-MEL-5 melanoma): 16.6 µM
GI50 (SK-OV-3 ovarian): 6.78 µM
TGI (SK-OV-3 ovarian): 27 µM
GI50 (SN12C renal): 10 µM
TGI (SN12C renal): 25.5 µM
GI50 (SNB-19 CNS): 9.79 µM
TGI (SNB-19 CNS): 25.3 µM
GI50 (SNB-75 CNS): 15.6 µM
TGI (SNB-75 CNS): 43.7 µM
GI50 (SR leukemia): 1.73 µM
TGI (SR leukemia): 7.1 µM
GI50 (SW-620 colon): 2 µM
TGI (SW-620 colon): 4.79 µM
GI50 (T-47D breast): 9.21 µM
TGI (T-47D breast): 40.4 µM
GI50 (TK-10 renal): 13.9 µM
TGI (TK-10 renal): 33.3 µM
GI50 (U251 CNS): 3.23 µM
TGI (U251 CNS): 14 µM
GI50 (UACC-257 melanoma): 10.8 µM
TGI (UACC-257 melanoma): 31.3 µM
GI50 (UACC-62 melanoma): 2.79 µM
TGI (UACC-62 melanoma): 10.7 µM
GI50 (UO-31 renal): 7.31 µM
TGI (UO-31 renal): 21.2 µM
